In the supplement of paper PMC10307832:

Compound: NC(=O)[C@@H](CCC(F)(F)F)N(Cc1ccc(-c2ncon2)cc1F)S(=O)(=O)c1ccc(Cl)cc1 [Avagacestat]
Assay: relative viability (nuclei count vs DMSO), 5 days (fraction); higher = more cells survive
Summary of the method: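 Five library-drug doses, separated by factors of √10, were pinned into 1536-well plates holding lung cancer cell lines after an overnight stay at 37 °C. Cells were fixed, permeabilised and Hoechst-stained in one step after 5 days without medium change, then imaged at 4×. Viability compares treated-well with vehicle-well nuclei, counted in MetaXpress, as a median across plates. Passing plates had control CV below 25% and at least one doubling.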

Work on NCI-H1651 yielded a relative viability (0.08 µM) of 1.08, a relative viability (0.253 µM) of 1.09 and a relative viability (0.8 µM) of 1.13. It also gave a relative viability (2.53 µM) of 0.98 and a relative viability (8 µM) of 0.922.
For NCI-H650, the relative viability (0.08 µM) was 1.02, the relative viability (0.253 µM) was 0.966 and the relative viability (0.8 µM) was 1.05. For the same cell line, the relative viability (2.53 µM) was 1.16 and the relative viability (8 µM) was 0.872.
For LOU-NH91, the relative viability (0.08 µM) was 1.05, the relative viability (0.253 µM) was 0.881 and the relative viability (0.8 µM) was 1.14. It also gave a relative viability (2.53 µM) of 0.917 and a relative viability (8 µM) of 0.968.
Cell Line H3255 has a relative viability (0.08 µM) of 1.04, a relative viability (0.253 µM) of 1.06 and a relative viability (0.8 µM) of 1.08. It also gave a relative viability (2.53 µM) of 1.01 and a relative viability (8 µM) of 0.988.
NCI-H1299 gave a relative viability (0.08 µM) of 1.03, a relative viability (0.253 µM) of 1.11 and a relative viability (0.8 µM) of 1.06. The relative viability (2.53 µM) was 1.04 and the relative viability (8 µM) was 1.
NCI-H460 was tested, and the relative viability (0.08 µM) was 1.09, the relative viability (0.253 µM) was 1.31 and the relative viability (0.8 µM) was 1.03. For the same cell line, the relative viability (2.53 µM) was 0.942 and the relative viability (8 µM) was 0.951.
LCLC-103H showed a relative viability (0.08 µM) of 0.994, a relative viability (0.253 µM) of 0.928 and a relative viability (0.8 µM) of 0.921. For the same cell line, the relative viability (2.53 µM) was 0.929 and the relative viability (8 µM) was 0.941.
In the case of SK-MES-1, the relative viability (0.08 µM) is reported as 1.14, the relative viability (0.253 µM) is reported as 1.08 and the relative viability (0.8 µM) is reported as 1.06. It also gave a relative viability (2.53 µM) of 0.92 and a relative viability (8 µM) of 0.889.
A-427 gave a relative viability (0.08 µM) of 1.12, a relative viability (0.253 µM) of 1.12 and a relative viability (0.8 µM) of 1.17. For the same cell line, the relative viability (2.53 µM) was 1.07 and the relative viability (8 µM) was 1.08.
Cell Line NCI-H441 has a relative viability (0.08 µM) of 1.32, a relative viability (0.253 µM) of 1.61 and a relative viability (0.8 µM) of 1.09. It also gave a relative viability (2.53 µM) of 1.24 and a relative viability (8 µM) of 0.794.
Cell Line HCC-44 has a relative viability (0.08 µM) of 0.999, a relative viability (0.253 µM) of 0.999 and a relative viability (0.8 µM) of 0.997. The relative viability (2.53 µM) was 0.968 and the relative viability (8 µM) was 0.935.
With NCI-H1993 the relative viability (0.08 µM) was 1.16, the relative viability (0.253 µM) was 1.09 and the relative viability (0.8 µM) was 1.34. For the same cell line, the relative viability (2.53 µM) was 0.93 and the relative viability (8 µM) was 1.01.
NCI-H2023 was tested, and the relative viability (0.08 µM) was 1.18, the relative viability (0.253 µM) was 1.22 and the relative viability (0.8 µM) was 1.1. It also gave a relative viability (2.53 µM) of 0.912 and a relative viability (8 µM) of 0.804.
Work on NCI-H1666 yielded a relative viability (0.08 µM) of 1.28, a relative viability (0.253 µM) of 1.18 and a relative viability (0.8 µM) of 1.26. The relative viability (2.53 µM) was 1.17 and the relative viability (8 µM) was 1.17.
With LCLC-97TM1 the relative viability (0.08 µM) was 1.08, the relative viability (0.253 µM) was 1.09 and the relative viability (0.8 µM) was 1.2. For the same cell line, the relative viability (2.53 µM) was 1 and the relative viability (8 µM) was 0.829.
Cell Line NCI-H1703 has a relative viability (0.08 µM) of 1.24, a relative viability (0.253 µM) of 1.03 and a relative viability (0.8 µM) of 0.975. It also gave a relative viability (2.53 µM) of 0.955 and a relative viability (8 µM) of 0.873.
For NCI-H1755, the relative viability (0.08 µM) was 1.03, the relative viability (0.253 µM) was 1.1 and the relative viability (0.8 µM) was 1.17. For the same cell line, the relative viability (2.53 µM) was 0.941 and the relative viability (8 µM) was 0.964.
EPLC-272H showed a relative viability (0.08 µM) of 0.989, a relative viability (0.253 µM) of 0.922 and a relative viability (0.8 µM) of 1.07. For the same cell line, the relative viability (2.53 µM) was 1 and the relative viability (8 µM) was 0.911.
Cell Line NCI-H2085 has a relative viability (0.08 µM) of 1.05, a relative viability (0.253 µM) of 1.02 and a relative viability (0.8 µM) of 1.04. It also gave a relative viability (2.53 µM) of 1.1 and a relative viability (8 µM) of 0.985.
BEN gave a relative viability (0.08 µM) of 1.13, a relative viability (0.253 µM) of 1.02 and a relative viability (0.8 µM) of 1.06. It also gave a relative viability (2.53 µM) of 0.959 and a relative viability (8 µM) of 0.917.
With COR-L 105 the relative viability (0.08 µM) was 0.955, the relative viability (0.253 µM) was 1.07 and the relative viability (0.8 µM) was 0.923. For the same cell line, the relative viability (2.53 µM) was 0.876 and the relative viability (8 µM) was 0.633.
Work on ABC-1 yielded a relative viability (0.08 µM) of 1.1, a relative viability (0.253 µM) of 1.25 and a relative viability (0.8 µM) of 1.26. For the same cell line, the relative viability (2.53 µM) was 1.14 and the relative viability (8 µM) was 0.877.
With HCC-15 the relative viability (0.08 µM) was 1.17, the relative viability (0.253 µM) was 1.19 and the relative viability (0.8 µM) was 1.13. It also gave a relative viability (2.53 µM) of 1 and a relative viability (8 µM) of 0.946.
NCI-H2170 gave a relative viability (0.08 µM) of 1.08, a relative viability (0.253 µM) of 1.18 and a relative viability (0.8 µM) of 0.994. The relative viability (2.53 µM) was 0.938 and the relative viability (8 µM) was 0.932.
For SK-LU-1, the relative viability (0.08 µM) was 1.21, the relative viability (0.253 µM) was 1.03 and the relative viability (0.8 µM) was 1.02. The relative viability (2.53 µM) was 0.83 and the relative viability (8 µM) was 0.908.
NCI-H2009 showed a relative viability (0.08 µM) of 1.04, a relative viability (0.253 µM) of 1.09 and a relative viability (0.8 µM) of 1.04. For the same cell line, the relative viability (2.53 µM) was 1.04 and the relative viability (8 µM) was 0.912.
NCI-H358 showed a relative viability (0.08 µM) of 1.02, a relative viability (0.253 µM) of 1 and a relative viability (0.8 µM) of 1.03. It also gave a relative viability (2.53 µM) of 0.835 and a relative viability (8 µM) of 0.835.
With NCI-H1650 the relative viability (0.08 µM) was 1.1, the relative viability (0.253 µM) was 1.08 and the relative viability (0.8 µM) was 0.95. The relative viability (2.53 µM) was 1.13 and the relative viability (8 µM) was 0.881.
Cell Line EBC-1 has a relative viability (0.08 µM) of 1.07, a relative viability (0.253 µM) of 1.11 and a relative viability (0.8 µM) of 1.12. It also gave a relative viability (2.53 µM) of 0.942 and a relative viability (8 µM) of 0.8.
In the case of NCI-H1975, the relative viability (0.08 µM) is reported as 1.02, the relative viability (0.253 µM) is reported as 1.21 and the relative viability (0.8 µM) is reported as 1.15. The relative viability (2.53 µM) was 0.943 and the relative viability (8 µM) was 0.967.
For SW 1573, the relative viability (0.08 µM) was 1.14, the relative viability (0.253 µM) was 1.14 and the relative viability (0.8 µM) was 1.06. The relative viability (2.53 µM) was 0.972 and the relative viability (8 µM) was 0.895.
In the case of LU99A, the relative viability (0.08 µM) is reported as 0.977, the relative viability (0.253 µM) is reported as 0.997 and the relative viability (0.8 µM) is reported as 1.12. It also gave a relative viability (2.53 µM) of 0.907 and a relative viability (8 µM) of 0.986.
NCI-H2405 was tested, and the relative viability (0.08 µM) was 1.01, the relative viability (0.253 µM) was 0.99 and the relative viability (0.8 µM) was 1.08. For the same cell line, the relative viability (2.53 µM) was 0.956 and the relative viability (8 µM) was 0.97.
For NCI-H2228, the relative viability (0.08 µM) was 1.07, the relative viability (0.253 µM) was 1.22 and the relative viability (0.8 µM) was 1.29. The relative viability (2.53 µM) was 0.9 and the relative viability (8 µM) was 1.01.
For HOP-62, the relative viability (0.08 µM) was 1.15, the relative viability (0.253 µM) was 1.17 and the relative viability (0.8 µM) was 1.03. The relative viability (2.53 µM) was 0.991 and the relative viability (8 µM) was 0.895.
Calu-6 was tested, and the relative viability (0.08 µM) was 1.15, the relative viability (0.253 µM) was 1.22 and the relative viability (0.8 µM) was 1.13. The relative viability (2.53 µM) was 1.07 and the relative viability (8 µM) was 1.04.
NCI-H322M showed a relative viability (0.08 µM) of 0.916, a relative viability (0.253 µM) of 0.833 and a relative viability (0.8 µM) of 0.97. For the same cell line, the relative viability (2.53 µM) was 0.74 and the relative viability (8 µM) was 0.846.
In the case of IA-LM, the relative viability (0.08 µM) is reported as 1.83, the relative viability (0.253 µM) is reported as 1.62 and the relative viability (0.8 µM) is reported as 1.44. It also gave a relative viability (2.53 µM) of 1.51 and a relative viability (8 µM) of 1.26.
HCC-78 gave a relative viability (0.08 µM) of 1.07, a relative viability (0.253 µM) of 1.01 and a relative viability (0.8 µM) of 1.18. For the same cell line, the relative viability (2.53 µM) was 0.801 and the relative viability (8 µM) was 0.915.
